These results are taken from paper PMC4569415, “Pro-Oxidant Activity of Amine-Pyridine-Based Iron Complexes Efficiently Kills Cancer and Cancer Stem-Like Cells” (PLoS ONE, 2015).

Where two headings read alike, the source gives them in different places.

Series [1] concerns CAPAN-1 cells. Kind of series: MTT cytotoxicity assay. The class given is cell-based, human. As to conditions: for viability at 10 µM / IC50 / viability at 5 µM: Homo sapiens; for viability at 10 µM: CAPAN-1, compound 10 μmol/L; for viability at 10 µM / viability at 5 µM: read-out: CAPAN-1 cell viability; for IC50: CAPAN-1, MTT, 48 h of compound exposure; for viability at 5 µM: CAPAN-1, compound 5 μmol/L. On the procedure:
(§1) The cytotoxic activity of the compounds was determined by MTT reduction assay as described. Compounds were diluted in Milli-Q water to obtain 1 mmol/L stock solutions. Appropriate aliquots of these solutions were diluted in the corresponding cell culture medium to obtain the final working concentrations. Aliquots of 5000 1BR3G cells, 6000 MCF-7, 6000 PC-3 cells, 10 000 CAPAN-1 cells, 4000 MCF 10A cells, 4000 HMLE cells or 4000 CCD-18Co cells were seeded in 96-well plates, 24 h prior to the treatments. Hematological cell lines were seeded at 400 000 cells/mL. Cells were treated with the corresponding compound at concentrations ranging from 0 to 100 μmol/L for 48 h. Three replicates for each compound were used. The IC50 was established for each compound by standard non-linear regression and curve fitting using GraphPad Prism (Graph Pad software Inc., La Jolla, CA, USA).

In series [2] the test system is MCF-7 cells. Briefly: MTT cytotoxicity assay. The series is classed as cell-based, human. The following applies: for IC50: Homo sapiens, MCF7, MTT, 48 h of compound exposure. On the procedure:
as §1
On the technique in general: Tetrazolium dyes change colour on reduction, which living cells bring about.

Series [3] relates to HMLER cells. Briefly: MTT cytotoxicity assay in non-CS-like parental cells. The series is classed as cell-based. As to conditions: Homo sapiens, 48 h. On the procedure: as §1
Fig 2 Cell viability assay. (A) Cytotoxic activity of compounds 1, 2, and 5 against cancer cells. The indicated cell lines were treated for 48 h with ligands (10 μmol/L) and cell viability was measured with the MTT assay. Data represents the percentage of viable cells relative to untreated cells (control). (B) Cytotoxicity of doxorubicin and compounds 1, 2 and 5 against CS-like cells. CS-like HMLER-shEcad cells and non-CS-like HMLER isogenic parental cells were treated for 48 h with graded concentrations of doxorubicin, 1, 2 and 5. Cell viability was measured with the MTT assay. For each treatment, the percentage of viable cells relative to untreated cells is indicated. Data represents the mean±SD of 3 independent experiments performed in triplicate.

Series [4] concerns tumor (PC-3, Z-138 and JURKAT) cell lines. Briefly: MTT cytotoxicity assay, tumor cell selection. As to conditions: Homo sapiens, range over PC-3, Z-138 and JURKAT, 48 h, read-out: IC50 values against tumor cells (range). The series is classed as cell-based. On the procedure:
as §1

Series [5] concerns MCF-7 and CAPAN-1 cells. Briefly: MTT cell viability with modulators (QVD-Oph, FeCl2). As to conditions: 48 h; for effect of FeCl2 co-incubation on cytotoxicity of the ligand: FeCl2 100 μmol/L co-incubation, 2 at 5 μmol/L, 1 and 5 at 10 μmol/L. The class given is cell-based, human. On the procedure:
as §1
Fig 4 Induction of caspase activity. (A) The indicated cell lines were treated for 48 h with compounds 1, 2 and 5 (10 μmol/L) and caspase 3/7 activity was measured as indicated in Materials and Methods. Bar charts show the fold increase in caspase activity relative to untreated (control) and represent the mean±SD from three independent experiments performed in triplicate. (B) MCF-7 and CAPAN-1 cells were treated for 48 h with the ligands (10 μM) in the absence (-) or presence (+) of the pan-caspase inhibitor QVD-Oph (20 μM) and cell viability was measured with the MTT assay. […] Data represents the mean ± SD of 3 independent experiments performed in triplicate. The differences between absence and presence of QVD-OPh treatment were statistically significant at * p<0.05, **p<0.01 and ***p<0.001.
Fig 9 Effects of iron on 1, 2 and 5 activity. (A) Effect of 2 h FeCl2 pre-incubation (FeCl2 p) (dotted line) or co-incubation (FeCl2 c) (dashed line) at 1, 10 or 100 μmol/L on the cytotoxicity of 2 (5 μmol/L) in MCF-7 and CAPAN-1 cells. FeCl2 alone was included as a control (solid line). Cell viability was determined after 48 h of treatment by the MTT assay. (B) Effect of FeCl2 pre-incubation or co-incubation (100 μmol/L) on the cytotoxicity of 2 (5 μmol/L), 1 and 5 (10 μmol/L). Cells treated with the ligands alone were included as a reference (control). (C) ROS induction in CAPAN-1 cells after 24 h treatment with 2 (10 μmol/L) alone, together with FeCl2 or after FeCl2 pre-incubation (at 100 μmol/L). Results are presented as a percentage of untreated cells and represent mean±SD of 3 independent experiments. *p < 0.05 versus control cells.

In series [6] the test system is CAPAN-1 cells. Kind of series: ROS measurement with H2DCFDA. The class given is cell-based, human. The following applies: for fold increase of ROS levels: 5 h; for H2DCFDA fluorescence (ROS): 5.8 at 0 μmol/L; for reduction of compound-induced ROS levels by NAC: CAPAN-1, NAC 5 mmol/L. On the procedure:
(§2) Cellular ROS content was determined using the 2′,7′-dichlorodihydrofluorescein diacetate probe (H2DCFDA). Cells were seeded in 24-well plates (50 000 cells/well) in phenol red-free DMEM 24 h prior to treatments. Cells were treated with different concentrations of compound 1, 2 and 5 (2.5, 5 or 10 μmol/L) or vehicle alone as a control, for 5 or 24 hours at 37°C. In some experiments, cells were co-treated with the compounds plus 5 mmol/L NAC. After treatments, cells were washed with PBS and incubated with 1 μmol/L H2DCF-DA in PBS for 30 minutes in the dark. After washing, cells were collected with trypsin and analyzed by flow cytometry using a FACS-Calibur flow cytometer (Becton-Dickinson®, Immunofluorometry Systems, Mountain View, CA, USA). The geometric mean fluorescence intensity of 10 000 cells was established using CellQuestTM software (Becton Dickinson). The fluorescence fold-increase versus untreated cells was determined for each treatment.

The test system of series [7] is MCF-7 cells. Kind of series: Cellular labile iron pool with calcein-AM. The series is classed as cell-based, human. The following applies: MCF-7, pre-incubation with ligands.
The subject of series [8] is MCF-7 cells. Kind of series: Cellular DNA damage, p-H2A.X flow cytometry. The class given is cell-based, human. As to conditions: MCF-7, 10 μmol/L, time-dependent. On the procedure: DNA damage was assessed by monitoring the intensity of p-H2A.X fluorescence using flow cytometry. Briefly, cells were collected with trypsin, washed in PBS and fixed in 3.7% formaldehyde for 15 min on ice. Cells were then permeabilised with 0.2% v/v Triton-X100 for 10 min and incubated with 1:400 rabbit anti-p-(S139)-H2A.X antibody (Cell Signaling Technology, Danvers, MA) for 30 min on ice. After washing in 0.1% Triton-X100 in PBS, cells were incubated with 1:400 anti-rabbit Alexa 555-conjugated antibody (Jackson ImmunoResearch, Newmarket, UK) for 20 min on ice. Analysis was carried out in a FACScan flow cytometer with Flowing software.

Series [9] concerns JURKAT cells. Briefly: ROS measurement with H2DCFDA. The following applies: 10 μmol/L, 24 h. The class given is cell-based, human. On the procedure:
as §2

The subject of series [10] is MCF-7 cells. Kind of series: ROS measurement with H2DCFDA. The class given is cell-based, human. As to conditions: MCF-7, 10 μmol/L, 24 h. On the procedure: as §2
Where [11] appears, read: compound 10 μmol/L, FeCl2 100 μmol/L pre-incubation.
Setting [12] is: compound 5 μmol/L, pretreated with 100 μmol/L FeCl2 for 2 h.

Turning to `c1ccc(CN2CCC[C@H]2[C@@H]2CCCN2Cc2ccccn2)nc1` [Compound 1], the viability at 10 µM in [1] (presence of NAC) was found to be 45.2 ± 5.4%; in series [1] (without NAC) it was 40.7 ± 6.9%. Moreover, the half-maximal inhibitory concentration (IC50) in series [1] is 9.9 ± 1.01 µM; in series [2], 7.4 ± 0.2 µM; in series [3], 6.5 ± 0.4 µM; in series [4], 4.8 to 15.1 µM. Besides, the “enhancement of cytotoxicity by FeCl2 pretreatment, CAPAN-1” value in [1] (setting [11]) was determined as 25.5%. Moreover, in series [2] (setting [11]), the “enhancement of cytotoxicity by FeCl2 pretreatment, MCF-7” value turned out to be 58.6%. In addition, the “effect of FeCl2 co-incubation on cytotoxicity of the ligand” value (from here on “effect of FeCl2 co-incubation”) in series [5] is “inhibited the cytotoxicity of the ligand in CAPAN-1, but not in MCF-7 cells”. Besides, the “fold increase of ROS levels” value in series [6] (CAPAN-1, 2.5 μmol/L) turned out to be 1.73 fold; in series [6] (CAPAN-1, 5 μmol/L), 2.01 fold; in series [6] (CAPAN-1, 10 μmol/L), 2.61 fold. In addition, the “H2DCFDA fluorescence (ROS)” value was determined as 10.9 in series [6] (CAPAN-1, 2.5 μmol/L, 24 h); 11.79 in [6] (CAPAN-1, 5 μmol/L, 24 h); 32.6 in [6] (CAPAN-1, 10 μmol/L, 24 h). Further, the “reduction of compound-induced ROS levels by NAC” value in [6] is on record as 31.1%. For the same molecule, the “calcein fluorescence compared with untreated cells” value in series [7] is listed as 131.4±13.2%. Also, in [8], the “increase in phosphorylated H2A.X” value is “three fold”.
On to `CN(C)c1ccnc(CN2CCC[C@H]2[C@@H]2CCCN2Cc2cc(N(C)C)ccn2)c1` [Compound 2], for which the viability at 5 µM in series [1] (absence of NAC) was determined as 23.9 ± 2.9%; in series [1] (presence of 5 mmol/L NAC), 33.6 ± 3.8%. Also, the half-maximal inhibitory concentration (IC50) in series [1] was 6 ± 0.7 µM; in series [2] it was 3.7 ± 0.4 µM; in series [3], 6.6 ± 0.3 µM; in series [4], 3.8 to 7.2 µM. For the same molecule, in series [1] (compound 5 μmol/L, 5 mmol/L NAC), the “increase in cell survival by NAC” value came to 40.6%. Besides, the “reduction in CAPAN-1 cell viability in FeCl2-pretreated cells” value in [1] (setting [12]) turned out to be 37.7%. For the same molecule, the “reduction in MCF-7 cell viability in FeCl2-pretreated cells” value in [2] (setting [12]) is 51.8%. Further, the “effect of FeCl2 co-incubation” value in series [5] is on record as “clearly inhibited”. For the same molecule, the “increase in cell viability by pan-caspase inhibitor QVD-Oph” value in [5] (ligand 10 μM, QVD-Oph 20 μM) is “lack of reversion”. Moreover, the “fold increase of ROS levels” value in series [6] (CAPAN-1, 2.5 μmol/L) worked out at 1.39 fold; in [6] (CAPAN-1, 5 μmol/L), 1.66 fold; in series [6] (CAPAN-1, 10 μmol/L) it was 2.53 fold. In addition, the “reduction of compound-induced ROS levels by NAC” value in series [6] is recorded as 26.8%. Moreover, in [6] (CAPAN-1, compound 10 μmol/L 24 h, FeCl2 100 μmol/L co-incubation), the “ROS induction with FeCl2 co-incubation” value is recorded as “abolished ROS induction”. Moreover, the “increase in ROS levels in FeCl2-pretreated vs non-pretreated cells” value in series [6] (CAPAN-1, compound 10 μmol/L 24 h, FeCl2 100 μmol/L pre-incubation) was determined as 1.5 fold. In addition, the “ROS levels versus control cells” value in series [9] is 1.94 folds. In [10], the “increase in ROS levels” value was found to be 7 fold. Besides, the “calcein fluorescence compared with untreated cells” value in series [7] is listed as 133.8±10.02%. For the same molecule, the “increase in phosphorylated H2A.X” value in series [8] is listed as “three fold”.
As for `CN1CCN(Cc2ccccn2)CCN(Cc2ccccn2)CC1` [Compound 5], the “effect of NAC on cytotoxicity” value in [1] (CAPAN-1, NAC 5 mmol/L) is “no protective effect of NAC”. Moreover, the IC50 in [1] is 7.9 ± 0.5 µM; in [2], 7.7 ± 0.3 µM; in series [3], 5.1 ± 0.1 µM; in series [4], 2.9 to 7.7 µM. The “effect of FeCl2 co-incubation” value in series [5] is reported as “Neither pretreatment nor co-incubation with FeCl2 affected”. Besides, the “intracellular ROS levels vs untreated cells” value in series [6] (CAPAN-1, 10 μmol/L, 24 h) is 2.4 fold. Also, the “calcein fluorescence compared with untreated cells” value in series [7] was “only a moderate iron-chelating effect”. For the same molecule, the “increase in phosphorylated H2A.X” value in [8] is on record as “four fold”.

Broadly, the viability is a read-out of living cells in per cent, often relative to untreated cells. For orientation: IC50 means the midpoint of a concentration-inhibition curve.
